The source of these data is US9938231B2, “Liquid arylbenzoyl benzoic acid ester derivatives for energy curable compositions” (SUN CHEMICAL CORPORATION, priority 2014, dated 2018).

Common to all, as to type: physicochemical
Data set [1] in a line: Solubility stability of photoinitiator blends. As to conditions: for Behaviour of the solution upon cooling to room temperature: 1:1 mixture with dimethylaminobenzoic acid ethylhexyl ester, dissolved at 50° C. As to the method: A 1:1 mixture in weight of 4-phenylbenzoyl benzoic acid ethylhexyl ester and dimethylaminobenzoic acid ethylhexyl ester was transformed into a solution by stirring at room temperature. […] As a comparison experiment, a 1:1 mixture of 4-phenylbenzophenone and dimethylaminobenzoic acid ethylhexyl ester was turned into a solution at elevated temperature of 50° C.

Data set [2] is described as follows: Solubility in propoxylated pentaerythritol tetraacrylate SR 494 LM (PPTTA). As to conditions: for Solubility in PPTTA: stirred 30 minutes at room temperature. As for the experimental part: 4-phenylbenzophenone, 4-phenylbenzoyl benzoic acid ethylhexyl ester, and 4-phenylbenzoyl benzoic acid amyl ester were each separately added to the multifunctional acrylate propoxylated pentaerythritol tetraacrylate (SR 494 LM, Sartomer company) (PPTTA) in amounts of 2, 4, 6, and 8 weight % and stirred for 30 minutes at room temperature.

The nature of data set [3]: Solubility in di-pentaerythritol hexaacrylate (DPHA). As to conditions: for Solubility in DPHA: stirred 30 minutes at room temperature. As for the experimental part:
4-phenylbenzophenone, 4-phenylbenzoyl benzoic acid ethylhexyl ester, and 4-phenylbenzoyl benzoic acid amyl ester were each added separately to the multifunctional acrylate di-pentaerythritol hexaacrylate (DPHA, Miwon Company) in amounts of 2, 4, 6, and 8 weight %, and stirred for 30 minutes at room temperature.

A short description of data set [4]: Viscosity of the neat ester. The conditions noted are these: at 25° C.
A short description of data set [5]: UV-spectra measurement (absorption maximum, molar extinction coefficient). The conditions noted are these: ethyl acetate; for Molar extinction coefficient: at absorption maximum. As for the experimental part: Spectra were acquired using a Unicam UV-2 UV/VIS spectrophotometer. All absorption spectra were obtained using 1 cm cuvettes, scanning within the 200-800 nm range. Solutions were prepared in a 100 cm^3 volumetric flask, and if required, subsequently diluted so that a maximum absorbance of less than 2 was obtained. From the absorption the molar extinction coefficient e was calculated in liter·mol^−1·cm^−1.

On to `COC(=O)c1ccccc1C(=O)c1ccc(-c2ccccc2)cc1` [4-phenylbenzoyl benzoic acid methyl ester], for which the “Behaviour of the solution upon cooling to room temperature” value in data set [1] is “instability and precipitation”.
Regarding `O=C(c1ccccc1)c1ccc(-c2ccccc2)cc1` [Example 1, 4-phenyl benzophenone, reference compound], the “Solubility in PPTTA” value was “solution” in data set [2] (2 weight % in PPTTA), “hazy” in data set [2] (4 weight % in PPTTA), “Solid residuals” in data set [2] (6 weight % in PPTTA) and “Solid residuals” in data set [2] (8 weight % in PPTTA). The “Solubility in DPHA” value was “solution” in data set [3] (2 weight % in DPHA), “solution” in data set [3] (4 weight % in DPHA), “Hazy- opaque” in data set [3] (6 weight % in DPHA) and “Solid residuals” in data set [3] (8 weight % in DPHA). Also, the “Behaviour of the solution upon cooling to room temperature” value in data set [1] is “precipitated”.
`CCCCC(CC)COC(=O)c1ccccc1C(=O)c1ccc(-c2ccccc2)cc1` (stereo not shown) [Example 9, 4-Phenylbenzoyl Benzoic Acid Ethyl Hexyl Ester] returned a Viscosity in data set [4] of 12 Pa·s. Besides, the “Solubility in PPTTA compared with 4-phenyl benzophenone” value in data set [2] is listed as “better solubility than 4-phenyl benzophenone”. Besides, the “Solubility in PPTTA” value in data set [2] (2 weight % in PPTTA), in data set [2] (4 weight % in PPTTA), in data set [2] (6 weight % in PPTTA) and in data set [2] (8 weight % in PPTTA) was “solution” throughout. Also, in data set [3], the “Solubility in DPHA compared with 4-phenyl benzophenone” value is given as “better solubility than 4-phenyl benzophenone”. The “Solubility in DPHA” value in data set [3] (2 weight % in DPHA), in data set [3] (4 weight % in DPHA), in data set [3] (6 weight % in DPHA) and in data set [3] (8 weight % in DPHA) was “solution” each time. In addition, the Molar extinction coefficient in data set [5] amounted to 20100 liter · mol^−1 · cm · ^−1. For the same compound, in data set [5], the Absorption maximum is recorded as 287 (ethyl acetate) nm. Besides, the “UV-spectroscopy: λ max” value in data set [5] is on record as 287 nm. Moreover, the “State of the solution at 5° C.” value in data set [1] (1:1 mixture in weight with dimethylaminobenzoic acid ethylhexyl ester) is recorded as “stayed liquid”.
Take `CCCCCOC(=O)c1ccccc1C(=O)c1ccc(-c2ccccc2)cc1` [Example 10, 4-Phenylbenzoyl Benzoic Acid Amyl Ester]: the Viscosity in data set [4] turned out to be 13 Pa·s. Moreover, in data set [2], the “Solubility in PPTTA compared with 4-phenyl benzophenone” value is “better solubility than 4-phenyl benzophenone”. The “Solubility in PPTTA” value in data set [2] (2 weight % in PPTTA), in data set [2] (4 weight % in PPTTA), in data set [2] (6 weight % in PPTTA) and in data set [2] (8 weight % in PPTTA) was “solution” each time. For the same compound, in data set [3], the “Solubility in DPHA compared with 4-phenyl benzophenone” value was “better solubility than 4-phenyl benzophenone”. The “Solubility in DPHA” value in data set [3] (2 weight % in DPHA), in data set [3] (4 weight % in DPHA), in data set [3] (6 weight % in DPHA) and in data set [3] (8 weight % in DPHA) was “solution” each time. Further, the “UV-spectroscopy: λ max” value in data set [5] worked out at 286 nm.
Consider `CCCCC(CC)COC(=O)c1ccccc1C(=O)c1ccc(-c2ccc(-c3ccccc3)cc2)cc1` (stereo not shown) [Example 12, 4-Terphenoyl Benzoic Acid Ethylhexyl Ester], for which, in data set [5], the Molar extinction coefficient amounted to 24900 liter · mol^−1 · cm · ^−1, the Absorption maximum is listed as 309 (ethyl acetate) nm and the “UV-spectroscopy: λ max” value was determined as 309 nm.
